Assay [1] is described as follows: THP-1 cell cytotoxicity, cytotoxicity control, set 4 (AID 504911). It counts as functional. The conditions noted are these: Mycobacterium tuberculosis.
A further assay concerns H9c2. Put plainly: cells. In kind it is functional, cell-based. To be noted: Rattus norvegicus, H9c2, Myocardium.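 Note: confirmatory concentration-response retest of ultra-high-throughput screening hits for modulation of myocardial damage; cell death induced by hydrogen peroxide oxidative stress; compound pretreatment for 60 min then peroxide exposure for 2 h; potency is for protecting the cells against peroxide damage rather than for killing them.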
The nature of assay [2]: CRF-BP/CRF-R2 complex antagonists, dose response, cell-based, uHTS hits, 384-well (AID 651639). It counts as functional, Homo sapiens. To be noted: read-out: IC50_Mean.
Assay [3] addresses T1, Voltage-gated N-type calcium channel alpha-1B subunit/Amyloid beta A4 precursor protein-binding family A member 1 (Homo sapiens, UniProt Q00975+Q02410). In kind it is protein assay.
For a further assay, the target named is Beta Lactamase (Pseudomonas aeruginosa, UniProt Q932Y6).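 Note: confirmatory high-throughput screen measuring VIM-2 metallo-beta-lactamase inhibition by epi-absorbance in dose response.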
For assay [4], the target named is T2, Tyrosine-protein phosphatase non-receptor type 5 (Homo sapiens, UniProt P54829).
T2 sequence (P54829 whole entry): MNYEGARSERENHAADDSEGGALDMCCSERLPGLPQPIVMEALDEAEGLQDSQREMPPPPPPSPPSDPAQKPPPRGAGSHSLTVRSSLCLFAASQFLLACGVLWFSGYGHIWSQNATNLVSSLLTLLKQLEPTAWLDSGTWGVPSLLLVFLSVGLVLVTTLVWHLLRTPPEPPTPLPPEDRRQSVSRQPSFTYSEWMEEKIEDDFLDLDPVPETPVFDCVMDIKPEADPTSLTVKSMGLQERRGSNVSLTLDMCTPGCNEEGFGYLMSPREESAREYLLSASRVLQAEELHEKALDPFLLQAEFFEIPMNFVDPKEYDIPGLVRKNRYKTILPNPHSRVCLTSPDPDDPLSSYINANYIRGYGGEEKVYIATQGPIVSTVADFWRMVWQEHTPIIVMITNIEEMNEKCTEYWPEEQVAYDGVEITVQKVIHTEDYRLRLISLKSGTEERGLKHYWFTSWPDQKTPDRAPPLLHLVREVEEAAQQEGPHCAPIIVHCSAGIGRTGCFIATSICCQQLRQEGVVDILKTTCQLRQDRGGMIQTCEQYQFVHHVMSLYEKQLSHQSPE
Put plainly: STEP phosphatase inhibitors, confirmation, biochemical, fluorescence intensity, uHTS hits (AID 602372). In kind it is functional. To be noted: read-out: IC50_Mean.

Assay [5] deals with Dual specificity protein phosphatase 3 (Homo sapiens, UniProt P51452). The assay is described as follows: VHR phosphatase inhibition, dose response, selectivity assay for STEP inhibitor project, biochemical (AID 602374). It counts as functional. To be noted: read-out: IC50_Mean.
Dual specificity protein phosphatase 3, sequence (P51452 whole entry): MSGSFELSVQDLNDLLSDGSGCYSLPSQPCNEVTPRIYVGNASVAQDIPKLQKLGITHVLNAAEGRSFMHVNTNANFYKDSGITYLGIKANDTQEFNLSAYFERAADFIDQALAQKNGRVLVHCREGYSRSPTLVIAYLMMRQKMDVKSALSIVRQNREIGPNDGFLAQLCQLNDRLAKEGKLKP
The target in assay [6] is T3, Low molecular weight phosphotyrosine protein phosphatase (Homo sapiens, UniProt P24666).
T3 sequence (P24666 whole entry): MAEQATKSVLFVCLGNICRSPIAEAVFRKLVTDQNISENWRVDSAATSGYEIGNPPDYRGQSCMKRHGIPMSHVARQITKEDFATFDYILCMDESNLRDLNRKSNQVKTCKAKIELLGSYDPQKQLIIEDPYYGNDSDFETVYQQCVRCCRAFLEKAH
It counts as functional. The conditions noted are these: read-out: IC50_Mean.

Assay [7] deals with T1, Voltage-gated N-type calcium channel alpha-1B subunit/Amyloid beta A4 precursor protein-binding family A member 1. In kind it is protein assay. This is another data set of the same source.
The target of assay [8] is T3, Low molecular weight phosphotyrosine protein phosphatase. It counts as functional. The conditions noted are these: read-out: IC50_Mean. The source holds these as a separate data set.
In assay [9] the target is Tyrosine-protein phosphatase non-receptor type 22 (Homo sapiens, UniProt Q9Y2R2). Put plainly: PTPN22 phosphatase inhibition, dose response, selectivity assay for STEP inhibitor project, biochemical (AID 624241). In kind it is functional.
In assay [10] the target is Beta-lactamase (Salmonella choleraesuis (strain SC-B67), UniProt Q5J463).
For assay [11], the target named is Beta-lactamase (Pseudomonas aeruginosa, UniProt Q79MP6).
The target of assay [12] is T4, Tyrosine-protein phosphatase non-receptor type 11 (Homo sapiens, UniProt Q06124).
T4 sequence (Q06124 whole entry): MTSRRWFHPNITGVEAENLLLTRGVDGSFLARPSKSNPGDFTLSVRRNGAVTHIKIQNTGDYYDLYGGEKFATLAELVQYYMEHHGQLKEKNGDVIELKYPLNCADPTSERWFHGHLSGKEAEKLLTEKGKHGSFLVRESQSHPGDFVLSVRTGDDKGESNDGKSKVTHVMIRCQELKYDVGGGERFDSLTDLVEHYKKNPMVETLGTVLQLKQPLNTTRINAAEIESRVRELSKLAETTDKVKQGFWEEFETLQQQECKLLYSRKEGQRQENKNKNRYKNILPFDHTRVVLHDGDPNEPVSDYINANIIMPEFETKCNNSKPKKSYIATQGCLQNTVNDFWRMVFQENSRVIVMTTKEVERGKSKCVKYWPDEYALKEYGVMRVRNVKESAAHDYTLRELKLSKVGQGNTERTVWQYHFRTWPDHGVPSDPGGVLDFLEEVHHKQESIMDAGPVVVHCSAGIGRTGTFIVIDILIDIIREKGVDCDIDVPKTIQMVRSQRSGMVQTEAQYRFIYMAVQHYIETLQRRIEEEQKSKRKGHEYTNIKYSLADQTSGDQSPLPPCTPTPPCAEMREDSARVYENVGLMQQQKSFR
Put plainly: SHP2 phosphatase inhibition, dose response, selectivity assay for STEP inhibitor project, biochemical (AID 602367). The conditions noted are these: read-out: IC50_Mean. In kind it is functional.

The target in assay [13] is Vascular endothelial growth factor receptor 2 (Homo sapiens, UniProt P35968). It counts as functional.
Vascular endothelial growth factor receptor 2, sequence (P35968 whole entry): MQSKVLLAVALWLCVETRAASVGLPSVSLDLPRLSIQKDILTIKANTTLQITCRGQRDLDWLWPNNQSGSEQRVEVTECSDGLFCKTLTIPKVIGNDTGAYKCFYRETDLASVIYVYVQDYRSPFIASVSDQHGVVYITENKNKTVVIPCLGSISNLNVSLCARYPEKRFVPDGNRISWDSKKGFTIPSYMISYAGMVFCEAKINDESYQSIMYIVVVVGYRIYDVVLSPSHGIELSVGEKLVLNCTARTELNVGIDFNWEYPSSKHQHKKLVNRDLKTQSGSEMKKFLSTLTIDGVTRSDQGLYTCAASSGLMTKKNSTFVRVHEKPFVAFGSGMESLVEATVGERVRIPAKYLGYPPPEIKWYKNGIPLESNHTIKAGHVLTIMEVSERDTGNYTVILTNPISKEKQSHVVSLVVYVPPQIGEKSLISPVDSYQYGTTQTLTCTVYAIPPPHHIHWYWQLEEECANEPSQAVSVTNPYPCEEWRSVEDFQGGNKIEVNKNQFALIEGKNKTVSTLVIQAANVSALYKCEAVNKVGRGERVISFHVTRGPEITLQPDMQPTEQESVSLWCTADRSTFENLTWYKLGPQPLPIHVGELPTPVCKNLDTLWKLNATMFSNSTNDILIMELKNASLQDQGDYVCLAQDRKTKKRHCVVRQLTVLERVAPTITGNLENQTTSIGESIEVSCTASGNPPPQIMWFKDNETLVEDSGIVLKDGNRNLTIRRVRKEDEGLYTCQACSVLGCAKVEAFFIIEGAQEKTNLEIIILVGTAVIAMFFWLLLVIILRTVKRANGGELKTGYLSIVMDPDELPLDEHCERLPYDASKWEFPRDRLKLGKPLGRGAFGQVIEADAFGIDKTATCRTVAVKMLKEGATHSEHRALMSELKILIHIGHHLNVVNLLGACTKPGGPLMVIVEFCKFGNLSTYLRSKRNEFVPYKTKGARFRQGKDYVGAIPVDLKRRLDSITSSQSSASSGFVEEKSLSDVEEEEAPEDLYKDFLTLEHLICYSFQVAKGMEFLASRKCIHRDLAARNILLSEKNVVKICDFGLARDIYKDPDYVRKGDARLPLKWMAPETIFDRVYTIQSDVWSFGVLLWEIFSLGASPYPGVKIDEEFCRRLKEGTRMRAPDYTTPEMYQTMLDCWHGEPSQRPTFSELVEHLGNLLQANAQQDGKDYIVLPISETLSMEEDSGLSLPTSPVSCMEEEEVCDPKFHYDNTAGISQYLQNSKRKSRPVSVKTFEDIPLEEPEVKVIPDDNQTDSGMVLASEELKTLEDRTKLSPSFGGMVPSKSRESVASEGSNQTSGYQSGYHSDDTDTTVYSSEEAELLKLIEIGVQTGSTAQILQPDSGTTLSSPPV
The next assay deals with Aurora kinase B (Homo sapiens, UniProt Q96GD4). In kind it is functional.
Another assay concerns the target Aurora kinase A (Homo sapiens, UniProt O14965). In kind it is functional.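 Note: value from the Navigating the Kinome kinase panel profiling, panel entry STK6.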
Assay [14] deals with T5, Apoptotic protease-activating factor 1 (Homo sapiens, UniProt O14727).
T5 sequence (O14727 whole entry): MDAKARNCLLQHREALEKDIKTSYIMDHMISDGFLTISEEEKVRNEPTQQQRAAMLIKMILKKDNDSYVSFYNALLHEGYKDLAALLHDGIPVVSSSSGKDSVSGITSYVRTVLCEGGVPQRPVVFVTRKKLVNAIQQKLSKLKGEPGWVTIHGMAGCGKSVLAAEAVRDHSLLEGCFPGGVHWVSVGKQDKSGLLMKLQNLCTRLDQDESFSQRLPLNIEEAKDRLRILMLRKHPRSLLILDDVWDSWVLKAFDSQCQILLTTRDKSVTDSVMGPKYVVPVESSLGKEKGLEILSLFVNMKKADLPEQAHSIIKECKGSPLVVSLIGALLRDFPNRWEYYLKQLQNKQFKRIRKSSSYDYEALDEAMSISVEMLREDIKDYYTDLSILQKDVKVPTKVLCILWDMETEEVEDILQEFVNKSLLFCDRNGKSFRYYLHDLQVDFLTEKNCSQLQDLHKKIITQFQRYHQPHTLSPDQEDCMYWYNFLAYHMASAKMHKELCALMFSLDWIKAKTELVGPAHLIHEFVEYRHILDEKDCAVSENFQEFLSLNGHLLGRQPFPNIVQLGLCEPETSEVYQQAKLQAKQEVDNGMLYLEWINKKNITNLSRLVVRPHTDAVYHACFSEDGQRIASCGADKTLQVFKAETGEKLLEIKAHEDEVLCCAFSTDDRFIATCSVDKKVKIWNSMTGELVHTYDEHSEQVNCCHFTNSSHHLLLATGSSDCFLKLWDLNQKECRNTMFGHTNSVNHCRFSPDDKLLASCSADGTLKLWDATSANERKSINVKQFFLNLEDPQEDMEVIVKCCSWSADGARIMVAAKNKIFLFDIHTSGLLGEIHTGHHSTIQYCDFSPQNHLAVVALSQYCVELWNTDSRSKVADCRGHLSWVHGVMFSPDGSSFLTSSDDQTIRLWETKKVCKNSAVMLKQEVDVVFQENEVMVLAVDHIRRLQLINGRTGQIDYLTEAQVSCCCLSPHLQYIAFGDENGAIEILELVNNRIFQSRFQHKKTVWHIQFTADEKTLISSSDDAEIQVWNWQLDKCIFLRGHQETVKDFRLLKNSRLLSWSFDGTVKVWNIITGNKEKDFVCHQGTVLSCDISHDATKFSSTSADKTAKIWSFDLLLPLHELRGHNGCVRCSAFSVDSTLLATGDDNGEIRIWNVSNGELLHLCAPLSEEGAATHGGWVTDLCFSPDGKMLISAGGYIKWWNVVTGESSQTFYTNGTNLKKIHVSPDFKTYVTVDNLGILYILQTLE
The assay is described as follows: SAR analysis of small molecule Activators of Apaf-1 in a Fluorescent assay. In kind it is functional. To be noted: read-out: EC50_Mean.

The source made the active and inactive calls. A value given as a limit tells only on which side of the number the result lay.

From ChEMBL document CHEMBL1201862, “PubChem BioAssay data set” (2004) come the findings set out here.
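Throughout, for EC50 Mean: caspase-3 cleavage of fluorogenic Rh110 DEVD substrate downstream of apoptosome activation.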

Aurora kinase A, sequence (O14965 whole entry): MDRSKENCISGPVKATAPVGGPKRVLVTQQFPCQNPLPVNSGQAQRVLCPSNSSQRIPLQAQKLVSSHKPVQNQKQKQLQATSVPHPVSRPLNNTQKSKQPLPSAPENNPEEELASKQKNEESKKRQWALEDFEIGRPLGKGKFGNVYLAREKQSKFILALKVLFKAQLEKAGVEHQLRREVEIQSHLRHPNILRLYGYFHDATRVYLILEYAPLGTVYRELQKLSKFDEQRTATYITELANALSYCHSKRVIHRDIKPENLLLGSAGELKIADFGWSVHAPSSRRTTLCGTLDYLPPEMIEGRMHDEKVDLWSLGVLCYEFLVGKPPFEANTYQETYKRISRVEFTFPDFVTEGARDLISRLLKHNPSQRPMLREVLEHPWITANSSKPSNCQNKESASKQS
T1 sequence (Q00975 whole entry): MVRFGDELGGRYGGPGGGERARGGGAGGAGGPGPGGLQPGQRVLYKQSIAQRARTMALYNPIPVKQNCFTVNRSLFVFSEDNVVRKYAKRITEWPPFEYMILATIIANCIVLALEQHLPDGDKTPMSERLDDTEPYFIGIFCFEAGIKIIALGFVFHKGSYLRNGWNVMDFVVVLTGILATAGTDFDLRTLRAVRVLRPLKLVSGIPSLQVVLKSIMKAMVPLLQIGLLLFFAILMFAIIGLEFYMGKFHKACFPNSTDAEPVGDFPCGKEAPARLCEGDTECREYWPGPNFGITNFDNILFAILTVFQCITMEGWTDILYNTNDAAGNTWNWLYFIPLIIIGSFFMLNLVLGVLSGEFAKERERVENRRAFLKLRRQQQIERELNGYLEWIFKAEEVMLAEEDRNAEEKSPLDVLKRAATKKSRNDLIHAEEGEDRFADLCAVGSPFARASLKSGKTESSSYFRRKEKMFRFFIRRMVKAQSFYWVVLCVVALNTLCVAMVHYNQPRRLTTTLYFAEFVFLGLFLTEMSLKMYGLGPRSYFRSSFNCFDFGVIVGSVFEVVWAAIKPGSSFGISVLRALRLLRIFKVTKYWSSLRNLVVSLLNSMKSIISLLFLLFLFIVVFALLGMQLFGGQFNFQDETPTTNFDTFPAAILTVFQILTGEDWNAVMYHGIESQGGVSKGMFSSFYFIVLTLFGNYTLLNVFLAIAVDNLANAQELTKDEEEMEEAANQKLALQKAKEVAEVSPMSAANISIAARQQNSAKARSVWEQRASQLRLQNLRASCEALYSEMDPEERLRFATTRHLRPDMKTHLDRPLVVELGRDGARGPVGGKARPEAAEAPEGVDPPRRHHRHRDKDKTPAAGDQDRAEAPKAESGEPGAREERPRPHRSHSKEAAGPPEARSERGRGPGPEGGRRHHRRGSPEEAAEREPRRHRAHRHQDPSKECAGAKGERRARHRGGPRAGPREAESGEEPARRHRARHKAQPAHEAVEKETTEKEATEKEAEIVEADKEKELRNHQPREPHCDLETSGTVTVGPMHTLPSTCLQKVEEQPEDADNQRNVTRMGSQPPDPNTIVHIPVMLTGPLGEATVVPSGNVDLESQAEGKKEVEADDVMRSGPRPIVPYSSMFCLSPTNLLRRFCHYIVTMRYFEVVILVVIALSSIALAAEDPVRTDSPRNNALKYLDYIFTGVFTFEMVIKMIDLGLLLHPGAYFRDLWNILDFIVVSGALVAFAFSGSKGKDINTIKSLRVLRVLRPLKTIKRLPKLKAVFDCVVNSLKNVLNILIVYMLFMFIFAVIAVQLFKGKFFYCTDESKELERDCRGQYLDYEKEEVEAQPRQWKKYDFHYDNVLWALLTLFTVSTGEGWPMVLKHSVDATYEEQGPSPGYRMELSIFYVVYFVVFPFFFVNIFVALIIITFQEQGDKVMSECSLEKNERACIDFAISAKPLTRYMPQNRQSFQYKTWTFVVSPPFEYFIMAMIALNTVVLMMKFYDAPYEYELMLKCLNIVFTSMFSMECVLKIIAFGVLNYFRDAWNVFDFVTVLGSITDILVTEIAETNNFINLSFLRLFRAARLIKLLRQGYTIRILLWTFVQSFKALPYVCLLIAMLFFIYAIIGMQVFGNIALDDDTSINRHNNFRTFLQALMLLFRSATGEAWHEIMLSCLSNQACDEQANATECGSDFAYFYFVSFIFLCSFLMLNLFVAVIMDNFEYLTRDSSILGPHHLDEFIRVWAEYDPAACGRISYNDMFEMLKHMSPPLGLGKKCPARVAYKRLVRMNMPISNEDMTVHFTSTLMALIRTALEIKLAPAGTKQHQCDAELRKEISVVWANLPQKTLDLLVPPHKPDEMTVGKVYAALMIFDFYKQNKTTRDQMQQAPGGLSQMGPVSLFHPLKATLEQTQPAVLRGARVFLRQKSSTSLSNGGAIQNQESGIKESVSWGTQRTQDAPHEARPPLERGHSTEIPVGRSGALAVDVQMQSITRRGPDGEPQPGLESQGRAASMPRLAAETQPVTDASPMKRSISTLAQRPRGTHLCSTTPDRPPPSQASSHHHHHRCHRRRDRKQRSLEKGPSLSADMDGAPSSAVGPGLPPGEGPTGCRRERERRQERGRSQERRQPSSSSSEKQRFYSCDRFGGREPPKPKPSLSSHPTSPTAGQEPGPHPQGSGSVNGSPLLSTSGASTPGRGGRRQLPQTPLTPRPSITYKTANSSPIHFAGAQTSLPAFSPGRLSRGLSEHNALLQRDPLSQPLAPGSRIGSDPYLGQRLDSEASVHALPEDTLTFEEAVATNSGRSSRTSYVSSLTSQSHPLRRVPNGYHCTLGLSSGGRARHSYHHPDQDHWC
T1 sequence (Q02410 whole entry): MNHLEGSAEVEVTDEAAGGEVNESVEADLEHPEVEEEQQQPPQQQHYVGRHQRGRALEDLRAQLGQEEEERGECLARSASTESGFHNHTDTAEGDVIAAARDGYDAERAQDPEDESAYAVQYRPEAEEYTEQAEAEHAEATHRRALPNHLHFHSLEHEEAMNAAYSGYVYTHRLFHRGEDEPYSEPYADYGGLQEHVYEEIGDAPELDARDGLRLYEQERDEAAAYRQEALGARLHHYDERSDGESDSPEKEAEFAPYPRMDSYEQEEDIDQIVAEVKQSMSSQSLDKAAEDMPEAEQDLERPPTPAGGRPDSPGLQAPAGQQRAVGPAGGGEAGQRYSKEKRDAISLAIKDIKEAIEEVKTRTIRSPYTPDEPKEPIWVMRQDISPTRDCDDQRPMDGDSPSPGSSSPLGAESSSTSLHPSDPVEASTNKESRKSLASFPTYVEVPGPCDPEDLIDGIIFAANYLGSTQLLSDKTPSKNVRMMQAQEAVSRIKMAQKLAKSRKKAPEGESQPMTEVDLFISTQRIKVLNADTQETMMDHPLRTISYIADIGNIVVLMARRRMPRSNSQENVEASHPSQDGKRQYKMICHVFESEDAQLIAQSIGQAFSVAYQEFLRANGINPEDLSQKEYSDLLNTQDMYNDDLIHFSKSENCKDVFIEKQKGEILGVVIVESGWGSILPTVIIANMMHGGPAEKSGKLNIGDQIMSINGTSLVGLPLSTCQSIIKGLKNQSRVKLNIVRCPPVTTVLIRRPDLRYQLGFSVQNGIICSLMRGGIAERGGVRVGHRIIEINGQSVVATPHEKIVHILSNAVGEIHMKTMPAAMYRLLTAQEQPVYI

Consider `O=C(CSc1nc(O)c2ccccc2n1)N1CCOCC1`, for which the CC50 in assay [1] is > 100 µM (active). Besides, the IC50 in the assay on H9c2 is 25.9 µM (active).

As for `CN(C(=O)COC(=O)CCc1nc(O)c2ccccc2n1)C1CCS(=O)(=O)C1` (stereo unspecified), the IC50 in assay [2] was > 20 µM (inactive).

With `C/C(=N\Nc1ccc(S(N)(=O)=O)cc1[N+](=O)[O-])c1cccs1`, the IC50 in assay [3] was 1.42 µM (active); at Beta Lactamase, > 59.6 µM (inactive); in [4], 13.9 µM (active); in [5], 3.04 µM (active); in assay [6] it was > 80 µM (inactive); in [7], > 50 µM (inactive). For the same compound, the IC50 in [8] is 38.2 µM (inactive); in assay [9] it was 81.3 µM (inactive); on Beta-lactamase [10] it was > 59.6 µM (inactive); at Beta-lactamase [11] it was > 59.6 µM (inactive); in assay [12] it was 2.13 µM (active).

As for `NC(=NO)c1cccc(S(=O)(=O)Nc2ccc3c(c2)C(=NO)c2ccccc2-3)c1`, the results for the Ki (in assay [13]; on Aurora kinase B; on Aurora kinase A) were > 5.01 µM (inactive), 0.02 µM (active) and 1 µM (active), respectively.

With `O=C(Nc1ccc(-n2cnc3ccccc32)cc1)Nc1cccc(C(F)(F)F)c1`, the Ki in assay [13] was 0.00316 µM (active); at Aurora kinase B it was 0.00251 µM (active); at Aurora kinase A, 0.501 µM (active).

Regarding `CCOC(=O)C1CCc2[nH]c3ccc(OC)cc3c2C1` (stereo unspecified), the EC50 in assay [14] was > 100 µM (inactive).

The term CC50 denotes the concentration at which the toxic effect on the cells reaches its halfway point. What is called Ki is the dissociation constant of the complex between target and ligand, obtained from inhibition or displacement.
